Assay results published in ChEMBL document CHEMBL3091347, “Comparison of Multiple Linear Regressions and Neural Networks based QSAR models for the design of new antitubercular compounds” (Eur J Med Chem, 2013).
≈ marks a conversion by molar mass, not a printed value.

Key:
[1] = Lipophilicity, log P of the compound; conditions: octanol/water
[2] = tested on: Mycobacterium tuberculosis; assay: Antitubercular activity against Mycobacterium tuberculosis BCG; type: functional
[3] = tested on: Mycobacterium tuberculosis; assay: Antitubercular activity against Mycobacterium tuberculosis; type: functional

SMILES | logP ([1]; logP) | MIC [2] [µg/mL] | log(1/MIC) [2] | logP [1] | log(1/MIC) [3] | MIC ([3]; Mycobacterium tuberculosis) [µg/mL]
CC(=O)NN | -2.78 | 150 (≈ 2020 µM) | -2.176 |  |  | 
O=C(NNC1CCCCC1)c1ccncc1 | -0.055 | 5 (≈ 22.8 µM) | -0.699 |  |  | 
CN(C)c1ccc(C(=O)NN)cc1 | -0.65 | 6 (≈ 33.5 µM) | -0.7782 |  |  | 
CC1CCCC(NNC(=O)c2ccncc2)C1 (stereo not given) | 0.464 | 4 (≈ 17.1 µM) | -0.6021 |  |  | 
NNC(=O)c1cncs1 | -2.2 | 10 (≈ 69.8 µM) | -1 |  |  | 
CC(C)=NNC(=O)c1ccco1 | 0.656 | 4 (≈ 24.1 µM) | -0.6021 |  |  | 
CC(C)N(N)C(=O)c1ccco1 | 0.115 | 15 (≈ 89.2 µM) | -1.176 |  |  | 
CC(C)(C#N)NNC(=O)c1cccs1 | 0.147 | 3 (≈ 14.3 µM) | -0.4771 |  |  | 
O=C(N/N=C/C(O)C(O)C(O)C(O)CO)c1cccs1 (stereo not given) |  | 0.6 (≈ 1.97 µM) | 0.2218 | -4.917 |  | 
O=C(NN=C1CCCCC1)c1cccs1 | 0.789 | 3 (≈ 13.5 µM) | -0.4771 |  |  | 
COc1ccc(C(=O)NN)cc1 |  | 8 (≈ 48.1 µM) | -0.9031 |  |  | 
O=C(NNS(=O)(=O)c1ccc([N+](=O)[O-])cc1)c1ccncc1 | -1.54 | 60 (≈ 186 µM) | -1.778 |  |  | 
NNC(=O)c1ccc(C(=O)NN)o1 | -1.63 | 6 (≈ 32.6 µM) | -0.7782 |  |  | 
NNC(=O)C1Cc2ccccc2O1 (stereo not given) | -1.32 | 22.5 (≈ 126 µM) | -1.352 |  |  | 
NNC(=O)c1cccnc1 [NICOTINIC ACID HYDRAZIDE] |  | 2 (≈ 14.6 µM) | -0.301 | -2.32 |  | 
CC(=O)N1CCC(C(=O)NN)CC1 | -3.98 | 6 (≈ 32.4 µM) | -0.7782 |  |  | 
NNC(=O)c1ccc([N+](=O)[O-])cc1 | -1.1 | 12 (≈ 66.2 µM) | -1.079 |  |  | 
NNC(=O)c1cscn1 | -2.05 | 15 (≈ 105 µM) | -1.176 |  |  | 
Cc1ccc(C)n1NC(=O)c1ccncc1 | 0.854 | 10 (≈ 46.5 µM) | -1 |  |  | 
NNC(=O)CCCCCCCCCCC(=O)NN | -2.03 | 3 (≈ 11.6 µM) | -0.4771 |  |  | 
NNC(=O)c1ccncc1N | -3.12 | 1.5 (≈ 9.86 µM) | -0.1761 |  |  | 
CC(C)(C#N)NNC(=O)c1ccco1 | 1.21 | 3 (≈ 15.5 µM) | -0.4771 |  |  | 

SMILES | logP ([1]; logP) | MIC [2] [µg/mL] | log(1/MIC) [2] | logP [1] | log(1/MIC) [3] | MIC ([3]; Mycobacterium tuberculosis) [µg/mL]
NNC(=O)c1nc2ccccc2s1 | -1.08 | 8 (≈ 41.4 µM) | -0.9031 |  |  | 
NNC(=O)C(O)c1ccccc1 (stereo not given) | -1.37 | 40 (≈ 241 µM) | -1.602 |  |  | 
NNC(=O)c1ccc[nH]1 | -1.99 | 60 (≈ 479 µM) | -1.778 |  |  | 
CCCCCC/C=N/NC(=O)c1ccncc1 | 0.719 | 0.03 (≈ 0.129 µM) | 1.523 |  |  | 
NNC(=O)c1ccc(Cl)cc1 |  | 3 (≈ 17.6 µM) | -0.4771 | -0.132 |  | 
NNC(=O)C(O)(c1ccccc1)c1ccccc1 | 0.196 | 100 (≈ 413 µM) | -2 |  |  | 
NNC(=O)CCC(=O)NN |  | 25 (≈ 171 µM) | -1.398 |  |  | 
NNC(=O)c1cc2ccccc2o1 | 0.835 | 2 (≈ 11.4 µM) | -0.301 |  |  | 
NNC(=O)c1ccccc1N | -2.07 | 30 (≈ 198 µM) | -1.477 |  |  | 
C/C=C/CCCCCCC/C=N/NC(=O)c1ccncc1 | 2.29 | 0.15 (≈ 0.522 µM) | 0.8239 |  |  | 
NNC(=O)c1cccc(N)c1 | -2.07 | 3 (≈ 19.8 µM) | -0.4771 |  |  | 
NNC(=O)/C=C/C(=O)NN |  |  |  |  | -1.9 | 80 (≈ 555 µM)
NNC(=O)Cc1cc2ccccc2[nH]1 | -1.61 | 60 (≈ 317 µM) | -1.778 |  |  | 
CC(=O)Nc1ccc(/C=N\NC(=O)c2ccco2)cc1 | 2.64 | 4.5 (≈ 16.6 µM) | -0.6532 |  |  | 
CC(C)/C=N/NC(=O)c1cccs1 | 0.125 | 1.2 (≈ 6.11 µM) | -0.07918 |  |  | 
CNC1C(OC2C(OC3C(O)C(O)C(NC(=N)N)C(O)C3NC(=N)N)OC(C)C2(O)/C=N/NC(=O)c2cccs2)OC(CO)C(O)C1O (stereo not given) |  | 0.25 (≈ 0.354 µM) | 0.6021 |  |  | 
O=C(NNS(=O)(=O)c1ccccc1)c1ccncc1 | -1.29 | 3 (≈ 10.8 µM) | -0.4771 |  |  | 
CC(C)COc1ccc(/C=N/NC(=O)c2ccncc2)cc1 | 2.81 | 0.2 (≈ 0.673 µM) | 0.699 |  |  | 
Cc1ccc(C)n1NC(=O)c1ccco1 | 3.04 | 15 (≈ 73.4 µM) | -1.176 |  |  | 
NNC(=O)c1nc2ccccc2[nH]1 | -1.73 | 15 (≈ 85.1 µM) | -1.176 |  |  | 
Cc1ccc(C)n1NC(=O)c1cccs1 | 1.98 | 40 (≈ 182 µM) | -1.602 |  |  | 
